Experimental data: patent publication US20230277508A1, “USE OF COMPOUND AS CYP2E1 INHIBITOR” (SHANGHAI LING XI BIOTECHNOLOGY DEVELOPMENT CO., LTD., priority 2020, published 2023)

Assays:
[1] = system: U251 cells / M2 microglial cells; test: U251 cells co-cultivated with M2 microglial cells; type: cell-based, human; details: SMI0 50 μmol/L vs M2 microglial cell co-cultivation group, P<0.001
Experimental: Experimental method: 10 1-2 d newborn C57BL/6 WT mice and 6 CYP2E1^−/− mice were taken, primary microglial cells and astrocytes were collected and inoculated into 6-well plates, and 24 h later, culture supernatants were taken and co-cultivated with glioma cells. Experimental groups: control group; M2 model group; high-concentration, medium-concentration, and low-concentration SMI0 (50 μmol/L, 12.5 μmol/L, and 3.1 μmol/L) groups; and CYP2E1 gene-knockout group. 24 h later, supernatants were discarded; and […] and IL-13 each were added at 20 ng/mL to induce the transformation of microglial cells into the M2 type in the M2 model group and the high-concentration, medium-concentration, and low-concentration SMI0 groups, and different concentrations of SMI0 (50 μmol/L, 12.5 μmol/L, and 3.1 μmol/L) were also added in the intervention groups. The proliferation of glioma cells was determined by a CCK8 method, and an apoptosis proportion was determined by an Annexin V-FITC-PI apoptosis staining kit.

[2] = system: LPS-induced sepsis in rats; test: LPS-induced rat sepsis model; type: in vivo, SD rat; details: SMI0 150 mg/kg ig or celecoxib 5 mg/kg ig 30 min before LPS 5 mg/kg ip; 4 h, 5 h, 6 h; vs model group
Experimental: Rats: An SD rat sepsis model was constructed through single intraperitoneal injection of LPS (5 mg/kg). 30 min before LPS administration, rats in the model group were administered with NS (0.5 mL/kg, i.g.), rats in the positive control group were administered with celecoxib (5 mg/kg, i.g.), and rats in the CYP2E1 inhibition group were administered with the compound SMI0 (150 mg/kg, i.g.). After LPS administration, a body temperature of each rat was measured and recorded every hour until 9 h (control group, n=8 rats; model group, n=10 rats; celecoxib group, n=10 rats; and SMI0 compound group, n=10 rats).

[3] = system: blood glucose level in diabetes rats; test: Diabetes rat model induced by a high-fat diet and STZ; type: in vivo
Experimental: Experimental method: A diabetes rat model was constructed by a high-fat diet+single intraperitoneal injection of STZ (40 mg/kg). A FBG level of higher than or equal to 16.7 mmol/L after two weeks of molding was a criterion for successful molding. Modeled rats were divided into various groups according to the blood glucose level. Rats in a model group were administered with NS, and rats in SMI0 low-dose and high-dose intervention groups were administered with the compound SMI0 at 30 mg/kg and 150 mg/kg every day, respectively. The FBG level in rats was determined and recorded regularly every week until the sixth week after administration. 10 rats were provided in each group.

[4] = system: glioma cell line GL261 brain in situ transplanted tumor; test: Mouse glioma model, in situ implantation of GL261 cells into the brain; type: in vivo, C57/BL6 mouse
Experimental: Experimental method: A female C57/BL6 mouse glioma model was constructed through in situ implantation of a glioma cell line GL261, with a cell concentration of 1*10^6. Experimental groups: sham-operated group (n=9); model group (n=10); temozolomide group (50 mg/kg, ig, n=11); SMI0 low-dose group (3.3 mg/kg, ig, n=13); SMI0 medium-dose group (10 mg/kg, ig, n=13); and SMI0 high-dose group (30 mg/kg, ig, n=13). The SMI0 intervention group was intragastrically administered with the compound SMI0 every day starting from three days before modeling, and the positive drug group was administered on day 3 to day 7 and day 10 to day 14 after surgery. The modeling took about 21 days. At the end of the experiment, blood was collected from the orbit, a body weight was measured, then the mice each were sacrificed, and brain tissues were collected. Brain tissue specimens were subjected to HE staining, and then the brain tissue lesion and tumorigenesis of mice in each group were observed.

[5] = system: A549 lung cancer cells; test: Direct effect on proliferation of A549 lung cancer cells (CCK8); type: cell-based; details: up to 100 μmol/L, 24 h
Experimental: Experimental method: Lewis lung cancer cells and A549 lung cancer cells in a logarithmic growth phase each were selected and inoculated into a 96-well plate at a concentration of 1*10^5 cells/mL, then 100 μL of a basic medium including SMI0 at different concentrations (0 μmol/L, 0.16 μmol/L, 0.8 μmol/L, 4 μmol/L, 20 μmol/L, and 100 μmol/L) was added to each well, and 24 h later, 10 μL of a CCK8 reagent was added to each well; and the cells were further cultivated for 2 h, and an absorbance OD value of each well was determined at 450 nm by a microplate reader. 3 replicates were set for each well, and an average was taken. The proliferation activity was calculated based on the OD value.

[6] = biological target: T1, CYP2E1 (Rattus norvegicus, UniProt P05182); test: In vivo inhibition of metabolism of DEN by CYP2E1 in rats (toxicokinetics of DEN); set-up: species or system SD rats
T1 construct: from tissue; host or cells: whole animal (SD rats); endogenous enzyme in vivo
T1 sequence (P05182 whole entry): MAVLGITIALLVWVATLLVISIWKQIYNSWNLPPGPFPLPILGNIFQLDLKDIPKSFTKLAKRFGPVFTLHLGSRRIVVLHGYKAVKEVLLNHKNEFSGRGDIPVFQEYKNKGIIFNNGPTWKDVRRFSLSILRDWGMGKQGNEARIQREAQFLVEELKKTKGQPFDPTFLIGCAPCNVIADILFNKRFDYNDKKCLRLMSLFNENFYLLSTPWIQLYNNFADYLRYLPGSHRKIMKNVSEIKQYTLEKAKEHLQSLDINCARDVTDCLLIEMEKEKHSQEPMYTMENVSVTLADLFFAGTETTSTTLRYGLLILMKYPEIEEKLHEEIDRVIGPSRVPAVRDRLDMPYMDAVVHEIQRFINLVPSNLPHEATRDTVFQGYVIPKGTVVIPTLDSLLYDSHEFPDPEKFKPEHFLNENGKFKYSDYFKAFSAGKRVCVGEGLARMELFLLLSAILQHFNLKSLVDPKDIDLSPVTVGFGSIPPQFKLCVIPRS
Experimental: Experimental method: An inhibitory effect of the compound SMI0 on CYP2E1 in rats was investigated by a self-controlled crossover experiment design. In a first round of experiments, DEN alone was intraperitoneally injected at 50 mg/kg (30 SD rats in total) in the first week; after a one-week interval, a second round of experiments were conducted as follows: each rat was first intragastrically administered with the compound SMI0 at a low, medium, or high dose (6 mg/kg, 30 mg/kg, or 150 mg/kg), and 5 min later, each rat was intraperitoneally injected with DEN at 50 mg/kg (10 rats were set for each of low, medium, and high doses); blood was collected at 2 min, 7 min, 15 min, and 30 min and 1 h, 2 h, 4 h, 6 h, 9 h, 12 h, 24 h, 36 h, 48 h, and 60 h; a DEN concentration in plasma was determined at different blood collection time points, and a toxicokinetic parameter of DEN was calculated; and plasma DEN was detected by high performance liquid chromatography (HPLC) as follows: 100 μL of plasma was added to 10 μL of perchloric acid, a resulting mixture was vortexed for 3 min and then centrifuged at 12,000 rpm for 10 min, and 10 μL of a resulting supernatant was collected and injected into an instrument, where the PLC was conducted with methanol:water=50:50 as a mobile phase and a detection wavelength of 240 nm.

CC(=O)c1scnc1C [SMI0]
proliferation of U251 cells [1]: significantly inhibited
increase in body temperature in the LPS-induced sepsis rat model [2]: avoided
FBG levels ([3]; SMI0 low-dose (30 mg/kg) and high-dose (150 mg/kg) daily, weeks 5 and 6, vs model group, P<0.05): significantly reduced
glucose tolerance ([3]; glucose tolerance test, SMI0 30 and 150 mg/kg daily): significantly improved
glioma growth in mice ([4]; SMI0 intervention (3.3, 10, 30 mg/kg ig daily), about 21 days, vs model group): significantly inhibited
tumor proliferation inhibition rate ([4]; as high as, SMI0 high-dose group 30 mg/kg ig): 97.6%
effect on the proliferation of A549 lung cancer cells [5]: no significant inhibitory effect
inhibition rate (CL of DEN) ([6]; SMI0 high dose 150 mg/kg ig): 86.77%
inhibition rate (CL of DEN) ([6]; SMI0 low dose 6 mg/kg ig): 62.43%
inhibition rate (CL of DEN) ([6]; SMI0 medium dose 30 mg/kg ig): 80.42%
